# Measured values reported in patent US20230265105A1, “MACROCYCLIC 7-PYRAZOL-5-YL-INDOLE DERIVATIVES AS INHIBITORS OF MCL-1” (Janssen Pharmaceutica NV, priority 2020, published 2023).
# Key:
# [1] = target: Myeloid Cell Leukemia 1 (Mcl-1) (Homo sapiens, UniProt Q07820); test: Terbium labeled Mcl-1 HTRF binding assay with Cy5-labeled BIM BH3 peptide; settings: Ki=IC50/(1+[L]/Kd), [L]=8 nM, Kd=10 nM, 60 min incubation at room temperature, read-out: Tb-MCL1 Ki
# Method: Terbium labeled Myeloid Cell Leukemia 1 (Mcl-1) homogeneous time-resolved fluorescence (HTRF) binding assay utilizing the BIM BH3 peptide (H2N-(C/Cy5Mal) WIAQELRRIGDEFN-OH) as the binding partner for Mcl-1.
# This assay evaluated inhibition of the BH3 domain: Mcl-1 interaction by measuring the displacement of Cy5-labeled BIM BH3 peptide (H2N—(C/Cy5Mal) WIAQELRRIGDEFN-OH) in the HTRF assay format.
# The following assay and stock buffers were prepared for use in the assay: (a) Stock buffer: 10 mM Tris-HCl, pH=7.5+150 mM NaCl, filtered, sterilized, and stored at 4° C.; and (b) 1×assay buffer, where the following ingredients were added fresh to stock buffer: 2 mM dithiothreitol (DTT), 0.0025% Tween-20, 0.1 mg/mL bovine serum albumin (BSA). The 1×Tb-Mcl-1+Cy5 Bim peptide solution was prepared by diluting the protein stock solution using the 1×assay buffer (b) to 25 pM Tb-Mcl-1 and 8 nM Cy5 Bim peptide.
# Using the Acoustic ECHO, 100 nL of 100×test compound(s) were dispensed into individual wells of a white 384-well Perkin Elmer Proxiplate, for a final compound concentration of 1× and final DMSO concentration of 1%. Inhibitor control and neutral control (NC, 100 nL of 100% DMSO) were stamped into columns 23 and 24 of assay plate, respectively. Into each well of the plate was then dispensed 10 μL of the 1×Tb-Mcl-1+Cy5 Bim peptide solution. The plate was centrifuged with a cover plate at 1000 rpm for 1 minute, then incubated for 60 minutes at room temperature with plates covered.
# The TR-FRET signal was read on an BMG PHERAStar FSX MicroPlate Reader at room temperature using the HTRF optic module (HTRF: excitation: 337 nm, light source: laser, emission A: 665 nm, emission B: 620 nm, integration start: 60 μs, integration time: 400 μs).
# The BMG PHERAStar FSX MicroPlate Reader was used to measure fluorescence intensity at two emission wavelengths—665 nm and 620 nm—and report relative fluorescence units (RFU) for both emissions, as well as a ratio of the emissions (665 nm/620 nm)*10,000. The RFU values were normalized to percent inhibition as follows:
# % inhibition=(((NC−IC)−(compound−IC))/(NC−IC))*100
# where IC (inhibitor control, low signal)=mean signal of 1×Tb-MCl-1+Cy5 Bim peptide+inhibitor control or 100% inhibition of Mcl-1; NC (neutral control, high signal)=mean signal 1×Tb-MCl-1+Cy5 Bim peptide with DMSO only or 0% inhibition
# An 11-point dose response curve was generated to determine IC50 values (using GenData) based on the following equation:
# Y=Bottom+(Top−Bottom)/(1+10^((log IC50−X)*HillSlope))
# where Y=% inhibition in the presence of X inhibitor concentration; Top=100% inhibition derived from the IC (mean signal of Mcl-1+inhibitor control); Bottom=0% inhibition derived from the NC (mean signal of Mcl-1+DMSO); Hillslope=Hill coefficient; and IC50=concentration of compound with 50% inhibition in relation to top/neutral control (NC).
# In this assay [L]=8 nM and Kd=10 nM
# Representative compounds of the present invention were tested according to the procedure as described above, with results as listed in the Table below (n.d. means not determined).
# [2] = test system: MOLP-8 human multiple myeloma cell line; test: MOLP8 Caspase-Glo 3/7 apoptosis induction assay; type: cell-based; settings: MOLP-8 cells, 2 hours at 37° C.; 30 μM highest conc.; averaged over all runs on all batches
# Description: MCL-1 is a regulator of apoptosis and is highly over-expressed in tumor cells that escape cell death. The assay evaluates the cellular potency of small-molecule compounds targeting regulators of the apoptosis pathway, primarily MCL-1, Bfl-1, Bcl-2, and other proteins of the Bcl-2 family. Protein-protein inhibitors disrupting the interaction of anti-apoptotic regulators with BH3-domain proteins initiate apoptosis.
# The Caspase-Glo® 3/7 Assay is a luminescent assay that measures caspase-3 and -7 activities in purified enzyme preparations or cultures of adherent or suspension cells. The assay provides a proluminescent caspase-3/7 substrate, which contains the tetrapeptide sequence DEVD. This substrate is cleaved to release aminoluciferin, a substrate of luciferase used in the production of light. Addition of the single Caspase-Glo® 3/7 Reagent in an “add-mix-measure” format results in cell lysis, followed by caspase cleavage of the substrate and generation of a “glow-type” luminescent signal.
# This assay uses the MOLP-8 human multiple myeloma cell line, which is sensitive to MCL-1 inhibition.
# Cell cultures were maintained between 0.2 and 2.0×10^6 cells/mL. The cells were harvested by collection in 50 mL conical tubes. The cells were then pelleted at 500 g for 5 mins before removing supernatant and resuspension in fresh pre-warmed culture medium. The cells were counted and diluted as needed.
# The assay reagent was prepared by transferring the buffer solution to the substrate vial and mixing. The solution may be stored for up to 1 week at 4° C. with negligible loss of signal.
# Compounds were delivered in assay-ready plates (Proxiplate) and stored at −20° C.
# Assays always include 1 reference compound plate containing reference compounds. The plates were spotted with 40 nL of compounds (0.5% DMSO final in cells; serial dilution; 30 μM highest conc. 1/3 dilution, 10 doses, duplicates). The compounds were used at room temperature and 4 μL of pre-warmed media was added to all wells except column 2 and 23. The negative control was prepared by adding 1% DMSO in media. The positive control was prepared by adding the appropriate positive control compound in final concentration of 60 μM in media. The plate was prepared by adding 4 μL negative control to column 23, 4 μL positive control to column 2 and 4 μL cell suspension to all wells in the plate. The plate with cells was then incubated at 37° C. for 2 hours. The assay signal reagent is the Caspase-Glo solution described above, and 8 μL was added to all wells. The plates were then sealed and measured after 30 minutes.
# The activity of a test compound was calculated as percent change in apoptosis induction as follows:
# [formula] [formula] % Effect (AC50)=100−((sample−LC)/(HC−LC))*100
# % Control=(sample/HC)*100
# % Control min=(sample−LC)/(HC−LC)*100
# Chain of Myeloid Cell Leukemia 1 (Mcl-1) (Q07820 whole entry): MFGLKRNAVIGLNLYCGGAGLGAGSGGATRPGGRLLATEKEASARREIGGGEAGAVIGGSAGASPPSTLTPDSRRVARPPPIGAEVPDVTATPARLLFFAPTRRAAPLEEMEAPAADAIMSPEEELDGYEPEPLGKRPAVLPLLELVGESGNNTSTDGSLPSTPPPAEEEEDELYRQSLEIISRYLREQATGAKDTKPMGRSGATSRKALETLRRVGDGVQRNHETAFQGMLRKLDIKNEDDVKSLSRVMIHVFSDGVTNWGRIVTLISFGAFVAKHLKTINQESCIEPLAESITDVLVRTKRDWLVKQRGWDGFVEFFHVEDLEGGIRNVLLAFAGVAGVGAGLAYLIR
smiles,measurement,setting,value
"COCCOCc1nn(C)c2c1CSCc1cc(n(C)n1)CCc1cc(c3ccc(F)c(F)c3c1)OCCCc1c(C(=O)O)n(C)c3c-2c(Cl)ccc13 (single isomer, unassigned) [Compound 15]",Ki,[1],2.58 nM
same,AC50,[2],1400 nM
"COCCn1c(C(=O)O)c2c3ccc(Cl)c(c31)-c1c(cnn1C)CSCc1cc(n(C)n1)CCc1cc(c3ccc(F)cc3c1)OCCC2 (single isomer, unassigned) [Compound 24]",Ki,[1],2.15 nM
same,AC50,[2],2530 nM
"Cn1nc2cc1CCc1cc(c3ccc(F)cc3c1)OCCCc1c(C(=O)O)[nH]c3c(c(Cl)ccc13)-c1c(cnn1C)CSC2 (single isomer, unassigned) [Compound 25]",Ki,[1],0.807 nM
same,AC50,[2],4130 nM
"CCn1c(C(=O)O)c2c3ccc(Cl)c(c31)-c1c(cnn1C)CCCc1cc(n(C)n1)CCc1cc(c3ccc(F)cc3c1)OCCC2 (single isomer, unassigned) [Compound 14]",Ki,[1],6.15 nM
same,AC50,[2],3460 nM
